Assay results taken from US20020177575A1, “Identification of farnesyl-protein transferase as a target for systemic lupus erythematosus therapies” (priority 2001, published 2002).

Columns and labels:
[1] = tested on: ras protein farnesylation; conditions: has been shown (prior knowledge); cited from earlier work
[2] = tested on: B6.Sle1(a+b) mice; test: Suppression of anti-nuclear autoantibody (ANA) production in B6.Sle1(a+b) mice; anti-histone-DNA ANA in sera by ELISA; assay type: in vivo, mouse; conditions: daily intraperitoneal injection, 75 mg/kg body weight for 4 weeks, sera before, during and after treatment
Description: T0 represents the OD value for measuring the titer of anti-Histone/DNA antibodies before treatment. T represents the OD value for measuring the titer of anti-Histone/DNA antibodies at a time point during or after treatment. Each point represents Mean±SE. Mice in control group were given vehicle (Tricaprylin) only.
To study whether POH can inhibit anti-nuclear autoantibody (ANA) production, the inventors treated B6.Sle1(a+b) mice by daily intraperitoneal injection of POH at a dose of 75 mg/kg body weight for 4 weeks. Sera were collected before, during, and after treatment. Levels of anti-histone-DNA ANA were determined by ELISA.

C=C(C)[C@@H]1CC=C(CO)CC1 [POH, Perillyl alcohol]
ras protein farnesylation [1]: has been shown to inhibit ras protein farnesylation | Sle1-mediated anti-histone-DNA ANA production ([2]; FIG. 3): can be suppressed | Sle1-mediated anti-histone-DNA ANA production ([2]; FIG. 3, listed as perillyl alcohol (POH)): Inhibitory effect
